pIC50: −log10 of the molar value.

For this assay, the target named is T1, recombinant human GST-SYK (Homo sapiens, UniProt P43405).
T1 construct: purchased Carna Biosciences 08-176
Kind of assay: Homogeneous Time-Resolved Fluorescence (HTRF) assay for the recombinant human Syk enzyme. As to conditions: HTRF assay, recombinant human GST-SYK; IC50 given as class symbols; read-out: rhSYK Activity. It counts as biochemical. Here is the method:
Homogeneous Time-Resolved Fluorescence (HTRF) Assay for the Recombinant Human Syk Enzyme
A recombinant GST-hSYK fusion protein was used to measure potency of compounds to inhibit human Syk activity. The recombinant human GST-SYK (Carna Biosciences #08-176) ([…]) was incubated with various concentrations of the inhibitor diluted in DMSO (0.1% final concentration) for 10 minutes at room temperature in 15 mM Tris-HCl (pH 7.5), 0.01% tween 20, 2 mM DTT in 384 well plate format. To initiate the reaction the biotinylated substrate peptide (250 nM final concentration) that contains the phosphorylation site for Syk was added with magnesium (5 mM final concentration) and ATP (25 μM final concentration). Final volume of the reaction was 10 μL. Phosphorylation of the peptide was allowed to proceed for 45′ at room temperature. To quench the reaction and detect the phosphorylated product, 2 nM of a Europium-anti-phosphotyrosine antibody (Perkin Elmer #AD0161) and 70 nM SA-APC (Perkin-Elmer #CR130-100) were added together in 15 mM Tris pH 7.5, 40 mM EDTA, 0.01% tween 20. Final volume of the quenching solution was 10 μL. The resulting HTRF signal was measured after 30 minutes on an EnVision (Perkin-Elmer) reader using a time-resolved fluorescence protocol.
(Time-resolved FRET reads energy transfer from a long-lived donor to a nearby acceptor.)
Regarding `Cc1cc(Nc2nccc(C)n2)cc(-c2cc(CCC(=O)O)ccn2)c1` [Example 2.23, 3-(2-{3-methyl-5-[(4-methylpyrimidin-2-yl)amino]phenyl}pyridin-4-yl)propanoic acid], the pIC50 is above 7.00. With `Cc1cc(Nc2nccc(C(F)(F)F)n2)cc(-c2ccc(CC(F)(F)C(=O)O)nc2)c1` [Example 24.3, 2,2-Difluoro-3-[5-(3-methyl-5-{[4-(trifluoromethyl)pyrimidin-2-yl]amino}phenyl)pyridin-2-yl]propanoic acid] the figure was above 7.00; with `Cc1cc(Nc2nccc(C(F)(F)F)n2)cc(-c2ccc(N3CCCC[C@@H]3C(=O)O)nc2)c1` [Example 7.85, (2R)-1-[5-(3-methyl-5-{[4-(trifluoromethyl)pyrimidin-2-yl]amino}phenyl)pyridin-2-yl]piperidine-2-carboxylic acid], above 7.00. `Cc1cc(Nc2nccc(C(F)(F)F)n2)cc(-c2ccc(NC(C)(C#N)C(C)(C)C)nc2)c1` (stereo not shown) [Example 7.115, 2,3,3-trimethyl-2-{[5-(3-methyl-5-{[4-(trifluoromethyl)pyrimidin-2-yl]amino}phenyl)pyridin-2-yl]amino}butanenitrile]: the pIC50 is 6.00 to 7.00.

For `Cc1cc(Nc2nccc(C(F)(F)F)n2)cc(-c2ccc(N[C@@H](Cc3ccccc3)C(=O)O)nc2)c1` [Example 7.97, N-[5-(3-methyl-5-{[4-(trifluoromethyl)pyrimidin-2-yl]amino}phenyl)pyridin-2-yl]-L-phenylalanine], the pIC50 was above 7.00. With `Cc1cc(Nc2nccc(C(F)F)n2)cc(-c2ccc(C(C)(O)C3CCC(C(=O)O)CC3)nc2)c1` (single isomer, unassigned) [Example 9.31, trans-4-{(1R or 1S)-1-[5-(3-{[4-(difluoromethyl)pyrimidin-2-yl]amino}-5-methylphenyl)pyridin-2-yl]-1-hydroxyethyl}cyclohexanecarboxylic acid] the figure was above 7.00. Then `Cc1cc(Nc2nccc(C(F)(F)F)n2)cc(-c2ccnc(NCC(C)O)c2)c1` (stereo not shown) [Example 15.72, 1-{[4-(3-methyl-5-{[4-(trifluoromethyl)pyrimidin-2-yl]amino}phenyl)pyridin-2-yl]amino}propan-2-ol], with above 7.00. Then `Cc1cc(Nc2nccc(C(F)(F)F)n2)cc(-c2ccc(NCC(C)(C)O)nc2)c1` [Example 7.44, 2-methyl-1-{[5-(3-methyl-5-{[4-(trifluoromethyl)pyrimidin-2-yl]amino}phenyl)pyridin-2-yl]amino}propan-2-ol], with above 7.00. `Cc1cc(Nc2nccc(C(F)(F)F)n2)cc(-c2ccc(N3CCC(N4CC(C(=O)O)CC4=O)CC3)nc2)c1` (stereo not shown) [Example 7.151, 1-{1-[5-(3-methyl-5-{[4-(trifluoromethyl)pyrimidin-2-yl]amino}phenyl)pyridin-2-yl]piperidin-4-yl}-5-oxopyrrolidine-3-carboxylic acid]: the pIC50 was above 7.00.

For `CNC(=O)C1CCCN1c1cc(-c2cc(C)cc(Nc3nccc(C(F)(F)F)n3)c2)ccn1` (racemic) [Example 15.81, N-methyl-1-[4-(3-methyl-5-{[4-(trifluoromethyl)pyrimidin-2-yl]amino}phenyl)pyridin-2-yl]prolinamide], the pIC50 was 6.00 to 7.00.

Take `Cc1cc(Nc2nccc(C3CC3)n2)cc(-c2ccc(CCC(=O)O)cn2)c1` [Example 2.40, 3-(6-{3-[(4-cyclopropylpyrimidin-2-yl)amino]-5-methylphenyl}pyridin-3-yl)propanoic acid]: the pIC50 was above 7.00. Then `Cc1cc(Nc2nccc(C(F)(F)F)n2)cc(-c2ccc(N[C@H](Cc3ccccc3)C(=O)O)nc2)c1` [Example 7.96, N-[5-(3-methyl-5-{[4-(trifluoromethyl)pyrimidin-2-yl]amino}phenyl)pyridin-2-yl]-D-phenylalanine], with above 7.00; and `Cc1cc(Nc2nccc(C(F)(F)F)n2)cc(-c2ccc(NCCc3cnc[nH]3)nc2)c1` [Example 7.24, N-[3-(6-{[2-(1H-imidazol-4-yl)ethyl]amino}pyridin-3-yl)-5-methylphenyl]-4-(trifluoromethyl)pyrimidin-2-amine], with 6.00 to 7.00.

Values taken from US9376418B2, “Substituted pyridine spleen tyrosine kinase (SYK) inhibitors” (Merck Sharp & Dohme Corp., priority 2012, dated 2016).
